# Data as given in PubChem BioAssay (NCI).
#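 Cultured in 96-well plates, cells were exposed to test compound for 48 hours across five concentrations. GI50 = concentration required for 50% inhibition of growth. TGI: concentration producing complete growth inhibition.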
# Key:
# Experiment in all cases: DTP human tumour cell line panel, 48 h
# [1] = test system: MDA-N
# [2] = test system: UO-31 renal
# [3] = test system: SK-MEL-28 melanoma
# [4] = test system: A549 NSCLC
# [5] = test system: LOX IMVI melanoma
# [6] = test system: HL-60(TB) leukemia
# [7] = test system: SK-MEL-5 melanoma
# [8] = test system: NCI-H460 lung
# [9] = test system: NCI-H226 lung
# [10] = test system: MDA-MB-231 breast
# [11] = test system: SF-268 CNS
# [12] = test system: SR leukemia
# [13] = test system: NCI/ADR-RES ovarian
# [14] = test system: UACC-62 melanoma
# [15] = test system: TK-10 renal
# [16] = test system: NCI-H23 lung
# [17] = test system: COLO 205 colon
# [18] = test system: RXF 393 renal
# [19] = test system: OVCAR-5 ovarian
# [20] = test system: 786-0 renal
# [21] = test system: EKVX NSCLC
# [22] = test system: UACC-257 melanoma
# [23] = test system: HT29 colon
# [24] = test system: T-47D breast
# [25] = test system: SK-OV-3 ovarian
# [26] = test system: SN12C renal
# [27] = test system: HOP-92 NSCLC
# [28] = test system: CCRF-CEM leukemia
# [29] = test system: OVCAR-8 ovarian
# [30] = test system: HS 578T breast
# [31] = test system: NCI-H522 lung
# [32] = test system: SNB-19 CNS
# [33] = test system: MALME-3M melanoma
# [34] = test system: OVCAR-3 ovarian
# [35] = test system: SW-620 colon
# [36] = test system: MDA-MB-435
# [37] = test system: SF-295 CNS
# [38] = test system: MCF7 breast
# [39] = test system: U251 CNS
# [40] = test system: PC-3 prostate
# [41] = test system: HCC-2998 colon
# [42] = test system: KM12 colon
# [43] = test system: HCT-15 colon
# [44] = test system: CAKI-1 renal
# [45] = test system: SNB-75 CNS
# [46] = test system: M14 melanoma
# [47] = test system: IGROV1 ovarian
# [48] = test system: HOP-62 NSCLC
# [49] = test system: SF-539 CNS
# [50] = test system: ACHN renal
# [51] = test system: RPMI-8226 leukemia
# [52] = test system: MOLT-4 leukemia
# [53] = test system: BT-549 breast
# [54] = test system: SK-MEL-2 melanoma
# [55] = test system: K-562 leukemia
# [56] = test system: DU-145 prostate
# [57] = test system: HCT-116 colon
# [58] = test system: OVCAR-4 ovarian
# [59] = test system: A498 renal
structure (smiles),measurement,setting,value
O=C(Nc1nccs1)c1cc2c(cc1Cl)Sc1nccn1S2(=O)=O,GI50,[1],17.9 µM
same,TGI,[1],33.4 µM
same,GI50,[2],4.41 µM
same,TGI,[2],14.7 µM
same,GI50,[3],20 µM
same,TGI,[3],37.6 µM
same,GI50,[4],23.8 µM
same,TGI,[4],63.4 µM
same,GI50,[5],10.9 µM
same,TGI,[5],25.6 µM
same,GI50,[6],13.6 µM
same,TGI,[6],31.2 µM
same,GI50,[7],16.5 µM
same,TGI,[7],30 µM
same,TGI,[8],29.5 µM
same,GI50,[9],19.6 µM
same,TGI,[9],35.6 µM
same,GI50,[10],19.5 µM
same,TGI,[10],36.2 µM
same,GI50,[11],19.2 µM
same,TGI,[11],46.9 µM
same,GI50,[12],3 µM
same,TGI,[12],11.9 µM
same,GI50,[13],18.9 µM
same,TGI,[13],44.7 µM
same,GI50,[14],14.3 µM
same,TGI,[14],27.4 µM
same,GI50,[15],18.9 µM
same,TGI,[15],34.4 µM
same,GI50,[16],16.9 µM
same,TGI,[16],33.7 µM
same,TGI,[17],30.7 µM
same,GI50,[18],18.9 µM
same,TGI,[18],39.7 µM
same,GI50,[19],21.7 µM
same,TGI,[19],46 µM
same,GI50,[20],16 µM
same,TGI,[20],29.4 µM
same,GI50,[21],20.6 µM
same,TGI,[21],44.7 µM
same,GI50,[22],13.9 µM
same,TGI,[22],26.9 µM
same,GI50,[23],19.8 µM
same,TGI,[23],46.7 µM
same,GI50,[24],23.4 µM
same,TGI,[24],64.5 µM
same,GI50,[25],24.5 µM
same,TGI,[25],63.9 µM
same,GI50,[26],16.8 µM
same,TGI,[26],32.6 µM
same,TGI,[27],39.4 µM
same,GI50,[28],5.05 µM
same,TGI,[28],24.8 µM
same,GI50,[29],17.2 µM
same,TGI,[29],37.1 µM
same,GI50,[30],28.5 µM
same,TGI,[30],91.7 µM
same,GI50,[31],1.23 µM
same,TGI,[31],2.85 µM
same,GI50,[32],18.9 µM
same,TGI,[32],37 µM
same,GI50,[33],20 µM
same,TGI,[33],37.2 µM
same,GI50,[34],15 µM
same,TGI,[34],28.3 µM
same,GI50,[35],16.8 µM
same,TGI,[35],42 µM
same,TGI,[36],31.3 µM
same,GI50,[37],18.3 µM
same,TGI,[37],34.5 µM
same,GI50,[38],6.72 µM
same,TGI,[38],19.9 µM
same,GI50,[39],17.2 µM
same,TGI,[39],31 µM
same,GI50,[40],16.8 µM
same,TGI,[40],33.4 µM
same,GI50,[41],15.9 µM
same,TGI,[41],29.4 µM
same,GI50,[42],12.4 µM
same,TGI,[42],26.6 µM
same,GI50,[43],12.2 µM
same,TGI,[43],33.9 µM
same,GI50,[44],8.5 µM
same,TGI,[44],36.9 µM
same,GI50,[45],18.8 µM
same,TGI,[45],35.4 µM
same,GI50,[46],17.8 µM
same,TGI,[46],34.6 µM
same,GI50,[47],11.7 µM
same,TGI,[47],29.8 µM
same,GI50,[48],14.8 µM
same,TGI,[48],30.2 µM
same,GI50,[49],19.4 µM
same,TGI,[49],37.5 µM
same,GI50,[50],17.7 µM
same,TGI,[50],32.2 µM
same,GI50,[51],9.29 µM
same,TGI,[51],23.6 µM
same,GI50,[52],19.1 µM
same,TGI,[52],42.1 µM
same,GI50,[53],18.2 µM
same,TGI,[53],35.4 µM
same,GI50,[54],17.4 µM
same,TGI,[54],33.1 µM
same,GI50,[55],15.9 µM
same,TGI,[55],37.1 µM
same,GI50,[56],16.3 µM
same,TGI,[56],30 µM
same,GI50,[57],16.1 µM
same,TGI,[57],29.5 µM
same,GI50,[58],16.4 µM
same,TGI,[58],38.6 µM
same,GI50,[59],19.2 µM
same,TGI,[59],34.8 µM
CC(C)[Si](OC1=C(C(=O)Nc2ccccc2Cl)CCCCC1)(C(C)C)C(C)C,TGI,[1],> 100 µM
same,TGI,[2],> 100 µM
same,TGI,[3],> 100 µM
same,TGI,[4],> 100 µM
same,TGI,[5],> 100 µM
same,TGI,[6],13.4 µM
same,TGI,[7],> 100 µM
same,TGI,[8],> 100 µM
same,TGI,[9],> 100 µM
same,TGI,[10],> 100 µM
same,TGI,[11],> 100 µM
same,TGI,[12],> 100 µM
same,TGI,[13],> 100 µM
same,TGI,[14],> 100 µM
same,TGI,[15],> 100 µM
same,TGI,[16],> 100 µM
same,TGI,[17],> 100 µM
same,TGI,[18],> 100 µM
same,TGI,[19],> 100 µM
same,TGI,[20],> 100 µM
same,TGI,[21],> 100 µM
same,TGI,[22],> 100 µM
same,TGI,[23],> 100 µM
same,TGI,[24],> 100 µM
same,TGI,[25],> 100 µM
same,TGI,[26],> 100 µM
same,TGI,[27],> 100 µM
same,TGI,[28],12.3 µM
same,TGI,[29],> 100 µM
same,TGI,[30],> 100 µM
same,TGI,[31],> 100 µM
same,TGI,[32],> 100 µM
same,TGI,[33],> 100 µM
same,TGI,[34],> 100 µM
same,TGI,[35],> 100 µM
same,TGI,[36],> 100 µM
same,TGI,[37],> 100 µM
same,TGI,[38],> 100 µM
same,TGI,[39],> 100 µM
same,TGI,[40],> 100 µM
same,TGI,[41],> 100 µM
same,TGI,[42],> 100 µM
same,TGI,[43],> 100 µM
same,TGI,[44],> 100 µM
same,TGI,[45],> 100 µM
same,TGI,[46],> 100 µM
same,TGI,[47],> 100 µM
same,TGI,[48],> 100 µM
same,TGI,[49],> 100 µM
same,TGI,[50],> 100 µM
same,TGI,[51],> 100 µM
same,TGI,[52],> 100 µM
same,TGI,[53],> 100 µM
same,TGI,[54],> 100 µM
same,TGI,[55],> 100 µM
same,TGI,[56],> 100 µM
same,TGI,[57],> 100 µM
same,TGI,[58],> 100 µM
same,TGI,[59],> 100 µM
COC(=O)C1Cc2cccc(C)c2C1 (configuration not stated),TGI,[1],> 100 µM
same,TGI,[2],> 100 µM
same,TGI,[3],> 100 µM
same,TGI,[4],> 100 µM
same,TGI,[5],> 100 µM
same,TGI,[6],> 100 µM
same,TGI,[7],> 100 µM
same,TGI,[8],> 100 µM
same,TGI,[9],> 100 µM
same,TGI,[10],> 100 µM
same,TGI,[11],> 100 µM
same,TGI,[12],> 100 µM
same,TGI,[13],> 100 µM
same,TGI,[14],> 100 µM
same,TGI,[15],> 100 µM
same,TGI,[16],> 100 µM
same,TGI,[17],> 100 µM
same,TGI,[18],> 100 µM
same,TGI,[19],> 100 µM
same,TGI,[20],> 100 µM
same,TGI,[21],> 100 µM
same,TGI,[22],> 100 µM
same,TGI,[23],> 100 µM
same,TGI,[24],> 100 µM
same,TGI,[25],> 100 µM
same,TGI,[26],> 100 µM
same,TGI,[27],> 100 µM
same,TGI,[28],> 100 µM
same,TGI,[29],> 100 µM
same,TGI,[30],> 100 µM
same,TGI,[31],> 100 µM
same,TGI,[32],> 100 µM
same,TGI,[33],> 100 µM
same,TGI,[34],> 100 µM
same,TGI,[35],> 100 µM
same,TGI,[36],> 100 µM
same,TGI,[37],> 100 µM
same,TGI,[38],71.6 µM
same,TGI,[39],> 100 µM
same,TGI,[40],> 100 µM
same,TGI,[41],> 100 µM
same,TGI,[42],> 100 µM
same,TGI,[43],> 100 µM
same,TGI,[44],> 100 µM
same,TGI,[45],> 100 µM
same,TGI,[46],> 100 µM
same,TGI,[47],> 100 µM
same,TGI,[48],> 100 µM
same,TGI,[49],> 100 µM
same,TGI,[50],> 100 µM
same,TGI,[51],> 100 µM
same,TGI,[52],> 100 µM
same,TGI,[53],> 100 µM
same,TGI,[54],> 100 µM
same,TGI,[55],> 100 µM
same,TGI,[56],> 100 µM
same,TGI,[57],> 100 µM
same,TGI,[58],> 100 µM
same,TGI,[59],> 100 µM
